Experimental data published in ChEMBL document CHEMBL5537209, “Teleocidin B-4, a PKC Activator, Upregulates Hypoxia-Inducible Factor 1 (HIF-1) Activity by Promoting the Accumulation of HIF-1α Protein via the PKCα/mTORC Signaling Pathway” (J Nat Prod, 2024).
The source made the active and inactive calls. No cut-off for these calls is given here.

Columns and labels:
Assay type in all cases: cell-based
HeLa S3 [1] = assay: Activation of HIF-1 in human HeLa S3 cells assessed as increase in HIF-1alpha protein level at 10 ng/ml pretreated with MG132 for 1 hr followed by 12 hrs incubation under normoxic condition by Western blotting analysis; conditions: filed as activator
HeLa S3 [2] = assay: Activation of HIF-1 transcriptional activity in human HeLa S3 cells transfected with 5xHRE-Luc/UCHL1 reporter and PKCalpha siRNA assessed as upregulation of HIF-1alpha protein level at 10 ng/ml incubated for 12 hrs under hypoxia condition by Western blotting assay
HeLa S3 [3] = assay: Activation of PKCdelta/mTORC pathway in human HeLa S3 cells transfected with PKCdelta siRNA assessed as accumulation of phosphorylated ribosomal protein S6 at 10 ng/ml incubated for 12 hrs under hypoxia condition by Western blotting analysis; conditions: filed as activator
HeLa S3 [4] = assay: Activation of PKCalpha/mTORC pathway in human HeLa S3 cells assessed as accumulation of phosphorylated ribosomal protein S6 at 10 ng/ml incubated for 12 hrs under hypoxia condition by Western blotting analysis; conditions: filed as activator
HeLa [5] = assay: Activation of HIF-1 transcriptional activity in human HeLa cells transfected with 5xHRE-Luc/UCHL1 reporter at 0.1 to 1000 ng/ml preincubated for 1 hr under normoxic condition followed by 24 hrs incubation under hypoxic condition by luciferase reporter assay; conditions: filed as activator, dose 0.1-1000 ng/ml, time 25.0 hrs
HeLa [6] = assay: Activation of HIF-1 transcriptional activity in human HeLa cells transfected with 5xHRE-Luc/UCHL1 reporter and PKCalpha siRNA at 10 ng/ml incubated for 24 hrs under hypoxia condition by luciferase reporter assay
HeLa S3 [7] = assay: Activation of HIF-1 in human HeLa S3 cells assessed as increase in HIF-1alpha protein level at 10 ng/ml preincubated for 1 hr under normoxic condition followed by 12 hrs incubation under hypoxic condition by Western blotting analysis; conditions: filed as activator, time 13.0 hrs
HeLa [8] = assay: Activation of HIF-1 transcriptional activity in human HeLa cells transfected with 5xHRE-Luc/UCHL1 reporter and PKCdelta siRNA at 10 ng/ml incubated for 24 hrs under hypoxia condition by luciferase reporter assay; conditions: filed as activator
HeLa [9] = assay: Activation of HIF-1 transcriptional activity in human HeLa cells transfected with 5xHRE-Luc/UCHL1 reporter at 10 ng/ml pretreated with Go6976 for 1 hr followed by 24 hrs incubation under hypoxic condition by luciferase reporter assay
HeLa S3 [10] = assay: Activation of PKCalpha/mTORC pathway in human HeLa S3 cells transfected with PKCalpha siRNA assessed as accumulation of phosphorylated ribosomal protein S6 at 10 ng/ml incubated for 12 hrs under hypoxia condition by Western blotting analysis
HeLa S3 [11] = assay: Activation of HIF-1 in human HeLa S3 cells assessed as increase in VEGF mRNA level at 10 ng/ml preincubated for 1 hr under normoxic condition followed by 6 hrs incubation under hypoxic condition by real-time quantitative PCR analysis; conditions: filed as activator, time 7.0 hrs
HeLa [12] = assay: Activation of HIF-1 transcriptional activity in human HeLa cells transfected with 5xHRE-Luc/UCHL1 reporter at 10 ng/ml pretreated with torin1 for 1 hr followed by 24 hrs incubation under hypoxia condition by luciferase reporter assay
HeLa S3 [13] = assay: Activation of HIF-1 in human HeLa S3 cells assessed as increase in VEGF mRNA level at 0.1 to 10 ng/ml preincubated for 1 hr under normoxic condition followed by 6 hrs incubation under hypoxic condition by real-time quantitative PCR analysis; conditions: filed as activator, dose 0.1-10 ng/ml, time 7.0 hrs
HeLa S3 [14] = assay: Activation of HIF-1 in human HeLa S3 cells assessed as increase in HIF-1alpha protein level at 0.1 to 10 ng/ml preincubated for 1 hr under normoxic condition followed by 12 hrs incubation under hypoxic condition by Western blotting analysis; conditions: filed as activator, dose 0.1-10 ng/ml, time 13.0 hrs
HeLa [15] = assay: Activation of HIF-1 transcriptional activity in human HeLa cells transfected with 5xHRE-Luc/UCHL1 reporter at 0.1 to 100 ng/ml pretreated with Go6983 for 1 hr followed by 24 hrs incubation under hypoxic condition by luciferase reporter assay; conditions: dose 0.1-100 ng/ml
HeLa S3 [16] = assay: Activation of HIF-1 in human HeLa S3 cells assessed as increase in HIF-1alpha protein level at 10 ng/ml pretreated with Go6983 for 1 hr followed by 12 hrs incubation under hypoxic condition by Western blotting analysis
HeLa S3 [17] = assay: Activation of HIF-1 in human HeLa S3 cells assessed as increase in VEGF mRNA level at 10 ng/ml pretreated with Go6983 for 1 hr followed by 6 hrs incubation under hypoxic condition by real-time quantitative PCR analysis
HeLa [18] = assay: Activation of HIF-1 transcriptional activity in human HeLa cells transfected with 5xHRE-Luc/UCHL1 reporter at 0.1 to 10 uM preincubated for 1 hr under normoxic condition followed by 24 hrs incubation under hypoxic condition by luciferase reporter assay; conditions: filed as activator, dose 0.1-10 µM, time 25.0 hrs

| SMILES | Activity (HeLa S3 [1]) | Activity (HeLa S3 [2]) | Activity (HeLa S3 [3]) | Activity (HeLa S3 [4]) | Activity (HeLa [5]) | Activity (HeLa [6]) | Activity (HeLa S3 [7]) | Activity (HeLa [8]) | Activity (HeLa [9]) | Activity (HeLa S3 [10]) | Activity (HeLa S3 [11]) | Activity (HeLa [12]) | Activity (HeLa S3 [13]) | Activity (HeLa S3 [14]) | Activity (HeLa [15]) | Activity (HeLa S3 [16]) | Activity (HeLa S3 [17]) | Activity (HeLa [18]) |
| --- | --- | --- | --- | --- | --- | --- | --- | --- | --- | --- | --- | --- | --- | --- | --- | --- | --- | --- |
| CCCCCCCCCCCCCC(=O)O[C@@H]1[C@@H](C)[C@@]2(O)[C@@H](C=C(CO)C[C@]3(O)C(=O)C(C)=C[C@@H]23)[C@@H]2C(C)(C)[C@]12OC(C)=O | Active | inactive | Active | Active | Active | inactive | Active | Active | inactive | inactive | Active | – | – | – | – | – | – | – |
| C=C[C@@]1(C)CC[C@](C)(C(C)C)c2cc3c4c(c[nH]c4c21)C[C@@H](CO)NC(=O)[C@H](C(C)C)N3C | Active | inactive | Active | Active | Active | inactive | – | Active | inactive | inactive | – | inactive | Active | Active | inactive | inactive | inactive | – |
| C[C@H]1[C@@H]2C[C@@]3(O[C@H](CCC3(C)C)CC(=O)O[C@@H](CO)CC(=O)O2)O[C@@H]1CCCCc1cccc(O)c1 | – | – | – | – | – | – | – | – | – | – | – | – | – | – | – | – | – | Active |
